System: mitochondrial membrane potential
Assay: Mitochondrial membrane potential with fluorescent dye JC-1
Format: cell-based, mouse
Details: microscopy; FIG. 15
Excerpt: For MA-Cell, and CPC prepared in Example 1, the mitochondrial membrane potential was examined using fluorescent dye JC-1 (Invitrogen) in accordance with manufacturer's protocol. JC-1 emits red fluorescence with a wavelength of 590 nm when accumulating on polarized mitochondria, and JC-1 is diffused into the cytoplasm to emit green fluorescence with a wavelength of 529 nm when mitochondria are depolarized (the membrane potential is eliminated).
Further, for 19 cells for each of MA-Cell and CPC, a ratio of the fluorescence intensity of polarized mitochondria (red, Dimer) to the fluorescence intensity of depolarized mitochondria (green, Monomer) (Dimer/Monomer ratio) was calculated (FIG. 16).

For N#CC(C#N)=NNc1ccc(OC(F)(F)F)cc1 [FCCP], the “JC-1 red fluorescence (polarized mitochondria)” value was “red fluorescence was substantially eliminated”.
